Assay results reported in ChEMBL document CHEMBL3576862, “Peptidic inhibitors for in vitro pentamer formation of human papillomavirus capsid protein l1” (ACS Med Chem Lett, 2015).
Activity calls are given as the source filed them. No cut-off for these calls is given here.

Tests used:
[1] = target: T1, Major capsid protein L1 (Human papillomavirus 16) (UniProt P03101); assay: Inhibition of GST-tagged HPV16 major capsid protein L1 pentamer formation at 1:100 ratio of pentamer to compound in presence of PPase by FPLC method
T1 sequence (whole entry): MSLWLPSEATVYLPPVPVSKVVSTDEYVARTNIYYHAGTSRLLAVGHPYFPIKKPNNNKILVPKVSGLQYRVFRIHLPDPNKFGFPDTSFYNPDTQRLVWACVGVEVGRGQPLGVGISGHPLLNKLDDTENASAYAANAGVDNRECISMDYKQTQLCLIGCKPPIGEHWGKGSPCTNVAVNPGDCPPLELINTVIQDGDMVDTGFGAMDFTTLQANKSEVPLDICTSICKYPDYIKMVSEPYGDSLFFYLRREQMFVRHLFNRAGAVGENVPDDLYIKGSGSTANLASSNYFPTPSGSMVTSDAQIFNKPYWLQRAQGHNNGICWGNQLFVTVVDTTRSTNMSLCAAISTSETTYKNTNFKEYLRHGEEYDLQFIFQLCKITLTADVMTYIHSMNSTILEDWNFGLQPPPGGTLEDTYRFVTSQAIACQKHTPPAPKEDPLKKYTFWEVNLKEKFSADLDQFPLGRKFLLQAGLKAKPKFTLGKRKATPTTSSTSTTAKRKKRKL

[2] = target: T1, Major capsid protein L1 (Human papillomavirus 16); assay: Binding affinity to GST-tagged HPV16 major capsid protein L1 pentamer formation at 1:100 ratio of pentamer to compound by CD spectroscopy method
[3] = target: T1, Major capsid protein L1 (Human papillomavirus 16); assay: (§1) Inhibition of pentamer formation of GST-tagged HPV16 major capsid protein L1 assessed as increased L1-m peak formation incubated with compound after overnight PPase-mediated digestion by size-exclusion chromatography
[4] = target: T1, Major capsid protein L1 (Human papillomavirus 16); assay: Binding affinity to GST-tagged HPV16 major capsid protein L1 by FRET assay
[5] = target: T1, Major capsid protein L1 (Human papillomavirus 16); assay: Binding affinity to GST-tagged HPV16 major capsid protein L1 assessed as increase in thermal stability by measuring melting temperature at 1:100 ratio of pentamer to compound by UV cloud point measurement assay
[6] = target: T1, Major capsid protein L1 (Human papillomavirus 16); assay: Inhibition of GST-tagged HPV16 major capsid protein L1 pentamer assembly assessed as size distribution of hydrodynamic diameter of pentamer assembly in presence of PPase measured after dialysis by dynamic light scattering method and transmission electron microscopy
[7] = target: T2, Major capsid protein L1 (human papillomavirus 58) (UniProt P26535); assay: Inhibition of GST-tagged HPV58 major capsid protein L1 pentamer formation at 1:100 ratio of pentamer to compound in presence of PPase by FPLC method
T2 sequence (whole entry): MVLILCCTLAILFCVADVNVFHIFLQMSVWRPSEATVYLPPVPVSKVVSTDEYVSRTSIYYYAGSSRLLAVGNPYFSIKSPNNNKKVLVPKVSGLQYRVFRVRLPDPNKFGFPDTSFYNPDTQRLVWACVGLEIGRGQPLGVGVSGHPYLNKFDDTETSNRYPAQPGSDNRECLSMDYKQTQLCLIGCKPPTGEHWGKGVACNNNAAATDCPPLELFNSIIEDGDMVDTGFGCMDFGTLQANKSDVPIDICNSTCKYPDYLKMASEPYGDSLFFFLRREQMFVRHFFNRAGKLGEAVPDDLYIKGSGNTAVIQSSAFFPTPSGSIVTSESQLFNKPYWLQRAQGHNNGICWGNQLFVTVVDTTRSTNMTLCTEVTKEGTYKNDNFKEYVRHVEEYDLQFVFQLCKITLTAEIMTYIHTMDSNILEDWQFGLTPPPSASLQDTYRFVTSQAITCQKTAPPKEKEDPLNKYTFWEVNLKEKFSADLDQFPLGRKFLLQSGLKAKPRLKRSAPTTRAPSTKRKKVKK

[8] = target: T3, Major capsid protein L1 (human papillomavirus 18) (UniProt P06794); assay: Inhibition of GST-tagged HPV18 major capsid protein L1 pentamer formation at 1:100 ratio of pentamer to compound in presence of PPase by FPLC method
T3 sequence (whole entry): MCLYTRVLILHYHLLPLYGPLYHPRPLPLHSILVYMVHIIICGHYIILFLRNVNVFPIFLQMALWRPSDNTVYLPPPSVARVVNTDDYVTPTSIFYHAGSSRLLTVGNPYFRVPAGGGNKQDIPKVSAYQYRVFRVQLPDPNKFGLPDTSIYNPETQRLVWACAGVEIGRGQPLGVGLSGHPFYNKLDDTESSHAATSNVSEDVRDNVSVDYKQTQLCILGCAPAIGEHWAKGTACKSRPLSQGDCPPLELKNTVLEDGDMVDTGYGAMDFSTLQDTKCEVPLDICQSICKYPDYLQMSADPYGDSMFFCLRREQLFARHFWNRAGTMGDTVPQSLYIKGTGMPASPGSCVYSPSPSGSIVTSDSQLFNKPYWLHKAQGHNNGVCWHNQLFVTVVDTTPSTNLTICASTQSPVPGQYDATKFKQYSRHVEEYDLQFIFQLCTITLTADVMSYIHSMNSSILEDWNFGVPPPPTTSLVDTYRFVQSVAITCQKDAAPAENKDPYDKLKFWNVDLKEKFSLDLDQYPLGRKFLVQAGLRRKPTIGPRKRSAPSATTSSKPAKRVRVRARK

[9] = target: T1, Major capsid protein L1 (Human papillomavirus 16); assay: Inhibition of GST-tagged HPV16 major capsid protein L1 pentamer assembly assessed as size distribution of hydrodynamic diameter of pentamer assembly in presence of PPase by dynamic light scattering method (reference value: 14.9 nanometer)
Major capsid protein L1 [10] = target: T4, Major capsid protein L1 (Human papillomavirus 16, UniProt P03101); assay: as §1
T4 sequence (P03101 whole entry): T1 sequence (whole entry)

[11] = target: T1, Major capsid protein L1 (Human papillomavirus 16); assay: Inhibition of pentamer formation of GST-tagged HPV16 major capsid protein L1 assessed as increased L1-m peak formation incubated with compound after overnight PPase-mediated digestion and measured after dialysis by dynamic light scattering method
[12] = target: T1, Major capsid protein L1 (Human papillomavirus 16); assay: Inhibition of GST-tagged HPV16 major capsid protein L1 pentamer assembly assessed as reduction in pentamer assembly in presence of PPase by static light scattering method
[13] = target: T1, Major capsid protein L1 (Human papillomavirus 16); assay: Inhibition of GST-tagged HPV16 major capsid protein L1 pentamer assembly assessed as reduction in pentamer assembly at 1:50 ratio of pentamer to compound in presence of PPase by static light scattering method
Major capsid protein L1 [14] = target: T4, Major capsid protein L1; assay: Binding affinity to GST-tagged HPV16 major capsid protein L1 using CY3-labeled compound by FRET assay

## H-DLDQFPAGRKFLLQ-OH
[1]
  inhibition: inactive
[2]
  Activity: inactive

## H-DLDQFPLGAKFLLQ-OH
[1]
  inhibition: inactive
[2]
  Activity: inactive

## H-PLGRKFL-OH
[1]
  inhibition: inactive

## H-SGFLRQLGFDKLQD-OH
[3]
  inhibition: inactive
[4]
  Activity: inactive
[5]
  Activity: inactive

## CC(C)C[C@H](NC(=O)[C@H](CC(C)C)NC(=O)[C@H](Cc1ccccc1)NC(=O)[C@H](CCCCN)NC(=O)[C@H](CCCNC(=N)N)NC(=O)CNC(=O)[C@H](CC(C)C)NC(=O)[C@@H]1CCCN1C(=O)[C@H](Cc1ccccc1)NC(=O)[C@H](CCC(N)=O)NC(=O)[C@H](CC(=O)O)NC(=O)[C@H](CO)NC(=O)[C@@H](N)CC(=O)O)C(=O)N[C@@H](CCC(N)=O)C(=O)O
[1]
  inhibition: inactive

## H-DLDQFPSSSKFLLQ-OH
[1]
  inhibition: inactive
[2]
  Activity: inactive

## H-DLDQFPLGR-OH
[1]
  inhibition: inactive

## H-DLDQSPLGRKFLLQ-OH
[1]
  inhibition: inactive

## H-QFPLGRKFL-OH
[1]
  inhibition: Active

## CC(C)C[C@H](NC(=O)[C@H](CC(C)C)NC(=O)[C@H](Cc1ccccc1)NC(=O)[C@H](CCCCN)NC(=O)[C@H](CCCNC(=N)N)NC(=O)CNC(=O)[C@H](CC(C)C)NC(=O)[C@@H]1CCCN1C(=O)[C@H](Cc1ccccc1)NC(=O)[C@H](CCC(N)=O)NC(=O)[C@H](CC(=O)O)NC(=O)[C@H](CC(C)C)NC(=O)[C@@H](N)CC(=O)O)C(=O)N[C@@H](CCC(N)=O)C(=O)O
[6]
  Activity: inactive
[7]
  inhibition: Active
[8]
  inhibition: inactive
[9]
  Activity: 9.4 nm
Major capsid protein L1 [10]
  IC50: 19.4 nM
[3]
  inhibition: Dose-dependent effect
[11]
  Activity: inactive
[12]
  inhibition: Dose-dependent effect
[13]
  inhibition: Active
[5]
  Activity: Active
Major capsid protein L1 [14]
  Kd: 600 nM

## CC(C)C[C@H](NC(=O)CNC(=O)[C@H](C)NC(=O)[C@H](CCC(N)=O)NC(=O)[C@H](CC(C)C)NC(=O)[C@H](CC(C)C)NC(=O)[C@H](Cc1ccccc1)NC(=O)[C@H](CCCCN)NC(=O)[C@H](CCCNC(=N)N)NC(=O)CNC(=O)[C@H](CC(C)C)NC(=O)[C@@H]1CCCN1)C(=O)N[C@@H](CCCCN)C(=O)N[C@@H](C)C(=O)N[C@@H](CCCCN)C(=O)O
Major capsid protein L1 [10]
  IC50: 48.1 nM
